Measured values reported in patent US5284774A (priority 1991, dated 1994).
Several values for one entry are separate records, joined by “and”; a condition that tells them apart may be missing. Identical values can stand only once. Entries after “also recorded” stand apart in the source; their conditions may differ. Like-named read-outs stand apart in the source and are kept apart here.

How the values were obtained:
System L = target: T1, System L (Mus musculus, UniProt Q9Z127); format: cell-based, murine
T1 construct: Murine L1210 Leukemia cells were grown in RPMI 1630 medium; endogenous in cells; host or cells: murine L1210 leukemia cells
T1 sequence (Q9Z127 whole entry): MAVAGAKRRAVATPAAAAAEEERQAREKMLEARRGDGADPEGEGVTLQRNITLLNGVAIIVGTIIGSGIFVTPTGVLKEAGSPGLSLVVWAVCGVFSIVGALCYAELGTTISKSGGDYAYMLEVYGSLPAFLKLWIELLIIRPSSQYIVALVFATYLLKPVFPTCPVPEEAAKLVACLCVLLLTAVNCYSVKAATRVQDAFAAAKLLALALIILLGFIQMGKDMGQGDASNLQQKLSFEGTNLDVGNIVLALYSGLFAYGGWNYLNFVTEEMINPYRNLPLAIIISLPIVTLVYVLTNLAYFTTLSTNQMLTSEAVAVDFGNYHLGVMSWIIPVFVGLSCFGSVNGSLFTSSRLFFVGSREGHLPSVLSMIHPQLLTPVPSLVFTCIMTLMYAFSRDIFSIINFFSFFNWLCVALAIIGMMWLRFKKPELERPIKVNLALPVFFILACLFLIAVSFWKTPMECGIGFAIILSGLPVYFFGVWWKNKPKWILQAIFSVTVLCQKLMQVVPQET
T1 sequence (P10852 whole entry partner): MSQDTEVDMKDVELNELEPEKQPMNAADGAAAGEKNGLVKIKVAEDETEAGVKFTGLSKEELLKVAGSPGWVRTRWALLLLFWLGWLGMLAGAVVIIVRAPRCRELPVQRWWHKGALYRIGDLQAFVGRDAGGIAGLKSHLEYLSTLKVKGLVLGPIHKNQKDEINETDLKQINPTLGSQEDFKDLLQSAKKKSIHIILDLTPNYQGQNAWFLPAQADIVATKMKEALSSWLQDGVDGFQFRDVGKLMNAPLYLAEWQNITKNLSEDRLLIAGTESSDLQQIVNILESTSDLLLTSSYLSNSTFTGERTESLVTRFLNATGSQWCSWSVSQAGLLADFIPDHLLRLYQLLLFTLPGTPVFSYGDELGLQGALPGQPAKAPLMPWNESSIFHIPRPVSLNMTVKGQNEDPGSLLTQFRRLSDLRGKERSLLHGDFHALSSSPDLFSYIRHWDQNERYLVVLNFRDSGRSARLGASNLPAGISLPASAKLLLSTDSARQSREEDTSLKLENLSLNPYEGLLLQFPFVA

[1] = test system: murine L1210 leukemia cells; format: cell-based; conditions: for IC90: l1210 cells, 45 min, read-out: LD90, murine L1210 leukemia cells (antitumor activity)
murine CFU-C = conditions: for CC90: mouse, bone marrow cfu-c, 0.75 h
[2] = dulbecco's phosphate buffered saline
[3] = read-out: KI, inhibition of initial rate of transport of BCH
[4] = read-out: Ki, competitive inhibition of BCH transport

| Compound | KI lower / affinity for System L greater than that of L-phenylalanine mustard (System L) | inhibition of System L (in words) (System L) | more effective inhibitor of System L than BCH (System L) | more potent than 2-amino-1,2,3,4-tetrahydro-2-naphthoic acid (System L) | Ki (System L; [3]) | Ki (System L; [4]) | antitumor activity (in words) [1] | improvement in therapeutic index [1] | IC90 [1] | myelosuppressive activity (in words) (murine CFU-C) | CC90 (murine CFU-C) | half life (t1/2) [2] |
| --- | --- | --- | --- | --- | --- | --- | --- | --- | --- | --- | --- | --- |
| NC1(C(=O)O)CCc2ccc(N(CCCl)CCCl)cc2C1 (racemic) [Compound 6, DL-2-Amino-7-bis(2-chloroethyl)amino-1,2,3,4-tetrahydro-2-naphthoic acid] | 500 fold | extremely potent competitive inhibitor; also recorded: most potent inhibitor of System L | 25-50 fold | approximately 40 fold | ~0.2 µM | 0.22 µM | enhanced antitumor activity | 2-2.5 fold and 2 fold | 26.5 µM | reduced myelosuppressive activity | 23.8 µM | approximately 40 minutes |
| L-phenylalanine mustard [L-PAM, reference compound] | – | – | – | – | – | 112 µM | – | – | 35 µM | – | 14 µM | – |
| NC1(C(=O)O)CCc2c(cccc2N(CCCl)CCCl)C1 (racemic) [Compound 7, DL-2-Amino-5-bis-(2-chloroethyl) amino-1,2,3,4-tetrahydro-2-naphthoic acid] | – | weaker inhibitor | – | – | 15.2 µM | – | – | – | – | – | – | – |
